According to PubChem BioAssay AID179 (DTP/NCI, 2004):
Calls of active or inactive are those of the source.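 Rule for the calls: active = compounds giving half or more protection of infected cells from virus-caused growth loss, again on retest; inactive = the rest.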

System: CEM cells HIV-1 protection, formazan growth assay
Experiment: NCI AIDS Antiviral Assay
Conditions: for IC50: measured here: growth of uninfected CEM cells
Summary of the method: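 Protection of CEM cells against HIV-1 measured as cell growth via soluble formazan read-out, with five concentrations tested on both infected and uninfected cells; failure to protect may reflect toxicity.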

| Compound | EC50 [µM] | IC50 [µM] | outcome |
| --- | --- | --- | --- |
| CCC(=O)NC(OCC1(CC)COC1)(C(F)(F)F)C(F)(F)F | > 200 | > 200 | – |
| CN(C)c1ccc(/C=C/c2ccnc3ccc4ccccc4c23)cc1 | > 79.4 | > 79.4 | – |
| C/C(=C1/N=C(c2cc([N+](=O)[O-])ccc2Cl)N(c2ccc(Br)cc2)C1=O)c1ccc(N(CCC#N)CCC#N)cc1C | > 11.5 | > 11.5 | – |
| COc1ccccc1NC(=O)C(/C=N/C(=S)NCCNc1ccc(OC)c(OC)c1)=C(\C)O | > 200 | 51.3 | – |
| N#CC1=CNc2ccccc2N=C1N | > 200 | > 200 | – |
| CCOP(=O)(OCC)/C(C#N)=C/c1ccc(-c2ccc(F)cc2F)o1 | – | – | inactive |
| CCCC(=O)[O-].CCCC(=O)[O-].NCCN.NCCN.[Co+3].[O-][Cl+3]([O-])([O-])[O-] | – | – | inactive |
| CCN(CC)CC(=O)NC1c2ccccc2Oc2ccccc21 | > 219 | > 219 | – |
| CO[C@@H]1C=C[C@@]23c4cc5c(cc4C(=O)O[C@H]2CN(C)[C@H]3C1)OCO5 | > 380 | > 380 | – |
| CC(C)=CCCC(O)C1CCC2C3CCC4CCCCC4(C)C3CCC12C (stereo unspecified) | > 100 | 87.1 | – |
| O=C(O)c1ccc(-c2ccc(-c3cc(=S)sc(=O)[nH]3)cc2)cc1 | > 263 | 89.1 | – |
| CC(C)(C)OC(=O)NCC(C#N)CNC(=O)OC(C)(C)C | > 603 | > 603 | – |
| CC(=O)OCC(OC(C)=O)C(OC(C)=O)C(OC(C)=O)C(OC(C)=O)C(OC(C)=O)c1nc2ccccc2[nH]1 (stereo unspecified) | > 200 | > 200 | – |
| Nn1c(-c2ccccc2Cl)nc2ccccc2c1=O | – | – | inactive |
| N#C/C=C/c1ccc2ccccc2c1 | > 40.7 | > 40.7 | – |
| O=C(Nc1cccc(NC(=O)c2cc(=O)c3ccccc3o2)n1)c1cc(=O)c2ccccc2o1 | > 151 | > 151 | – |
| O=C(NC12CC3CC(CC(C3)C1)C2)C(=O)c1c[nH]c2ccccc12 | – | – | inactive |
| CCOC(=O)/C(C#N)=C/c1ccccc1Cl | – | – | inactive |
| Cn1c(N)c(-c2c3ccccc3nc3ccccc23)c(=O)n(C)c1=O | > 40.7 | > 40.7 | – |
| C=CC1CN2CCC1CC2C(O)c1ccnc2ccc(OC)cc12 (stereo unspecified) | > 200 | > 100 | – |
| O=C(O)c1c(-c2cccc3ccccc23)sc(-c2cccc3ccccc23)c1C(=O)O | – | – | inactive |
| C[C@H](CCC(=O)O[C@@H]1CC[C@@]2(C)C(CC[C@H]3[C@@H]4CC[C@H]([C@H](C)CCc5nc6ccccc6[nH]5)[C@@]4(C)CC[C@@H]32)C1)[C@H]1CC[C@H]2[C@@H]3CCC4C[C@H](O)CC[C@]4(C)[C@H]3CC[C@]12C (stereo partly specified) | > 100 | > 100 | – |

| Compound | EC50 [µM] | IC50 [µM] | outcome |
| --- | --- | --- | --- |
| C/C(=N\NS(=O)(=O)c1ccccc1)c1ccc[n+]([O-])n1 | – | – | inactive |
| CC(=O)C1CC2=C(CCC1=O)CCC1(CC2)OCCO1 (stereo unspecified) | – | – | inactive |
| COC(=O)C(C)(N=Cc1ccccc1)c1ccccc1 (stereo unspecified) | > 200 | > 200 | – |
| Oc1[nH]c2ccccc2c1N=Nc1nc(-c2ccccc2)cs1 | > 200 | > 200 | – |
| O=C(O)/C=C/c1ccc(/C=C/C(=O)O)cc1 | > 200 | > 200 | – |
| COC(=O)[C@@H]1CN(C(=O)CCc2ccccc2)C(=O)N1C(=O)OCc1ccccc1 | > 200 | 97.7 | – |
| CC(=O)C1CC[C@@H]2[C@H](CC[C@]3(C)[C@@H](O)CC[C@@H]23)[C@H]1C(=O)O (stereo partly specified) | > 200 | > 200 | – |
| COc1ccc(/C=C2\NC(=S)N(CN3CCOCC3)C2=O)cc1 | > 200 | 46.8 | – |
| COC(=O)c1ccc(CSc2ccc(OC)cc2)cc1 | – | – | inactive |
| Oc1cc(-n2cccn2)c(O)cc1-n1cccn1 | > 77.6 | 14.1 | – |
| Nc1ncnc2c1ncn2[C@H]1C(CO)[C@@H](CO)C12SCCCS2 (stereo partly specified) | > 191 | > 191 | – |
| CCOP(=O)(OCC)/C(C#N)=C(\C)c1ccco1 | > 200 | > 200 | – |
| COC(=O)c1ccc(SSc2ccc(C(=O)OC)cc2[N+](=O)[O-])c([N+](=O)[O-])c1 | – | – | inactive |
| Nc1nc2ncn(COC(CO)CO)c2c(=O)[nH]1 | > 200 | > 200 | – |
| Cc1cc(O)c(C=O)c2c1C(=O)Oc1c(CO)c(O)c3c(c1O2)C(O)OC3=O (stereo unspecified) | > 57.5 | > 57.5 | – |
| O=C1CSC(/C(=N/Nc2ccccc2)c2nc3ccccc3[nH]2)=N1 | > 15.5 | > 15.5 | – |
| CC1(C)CC(=O)C(/C=N/C(=S)NCCc2ccccc2)=C(O)C1 | > 200 | > 200 | – |
| Cc1c(-c2cnccn2)ssc1=S | > 200 | 102 | – |
| COC(=O)c1cc(C(=O)c2cc(Br)c(OC)c(C(=O)OC)c2)cc(Br)c1OC | > 200 | 67.6 | – |
| CC1CN2CCc3c([nH]c4ccccc34)C2C[C@@H]1CC(=O)N(C)C (stereo partly specified) | > 191 | > 191 | – |
| COC(=O)C(=O)C(C(=O)C(=O)Nc1ccc(F)cc1)c1nc2ccc([N+](=O)[O-])cc2[nH]c1=O (stereo unspecified) | > 550 | 245 | – |
